Molecules are shown by their SMILES. pIC50: −log10 of the molar value. Structures can show the parent of a compound that is named as a salt.

The assay deals with T1, His6-JNK2 (Homo sapiens, UniProt P45984).
T1 construct: His6 (N)
Kind of assay: JNK2 Assay (c-Jun phosphorylation, 32P-ATP filter plate). Type of assay: biochemical. The settings on record: c-Jun phosphorylation reduced to 50% of control; GST-c-Jun(1-79), 11 μM ATP; read-out: IC50 value in the JNK2 Assay. The protocol: To 10 μL of the test compound in 20%/DMSO/80% dilutien buffer consisting of 20 mM HELPS (pH 7.6), 0.1 mM; EDTA, 2.5 mM magnesium chloride, 0.004% Triton×100, 2 μg/mL leupeptin, 20 mM β-glycerolphosphate, 0.1 mM sodium vanadate, and 2 mM DTT in water is added 30 μL of 50 ng His6-JNK2 in the same dilution buffer. The mixture is preincubated for 30 minutes at room temperature. Sixty microliter of 10 μg GST-c-Jun(1-79) in assay buffer consisting of 20 mM HEPES (pH 7.6), 50 mM sodium chloride, 0.1 mM EDTA, 24 mM magnesium chloride, 1 mM DTT, 25 mM PNPP, 0.05% Triton×100, 11 μM ATP, and 0.5 μCi γ-^32P ATP in water is added and the reaction is allowed to proceed for 1 hour at room temperature. The c-Jun phosphorylation is terminated by addition of 150 μL of 12.5% trichloroacetic acid. After 30 minutes, the precipitate is harvested onto a filter plate, diluted with 50 μL of the scintillation fluid and quantified by a counter. The IC50 values are calculated as the concentration of the test compound at which the c-Jun phosphorylation is reduced to 50% of the control value.

T1 sequence (P45984 whole entry): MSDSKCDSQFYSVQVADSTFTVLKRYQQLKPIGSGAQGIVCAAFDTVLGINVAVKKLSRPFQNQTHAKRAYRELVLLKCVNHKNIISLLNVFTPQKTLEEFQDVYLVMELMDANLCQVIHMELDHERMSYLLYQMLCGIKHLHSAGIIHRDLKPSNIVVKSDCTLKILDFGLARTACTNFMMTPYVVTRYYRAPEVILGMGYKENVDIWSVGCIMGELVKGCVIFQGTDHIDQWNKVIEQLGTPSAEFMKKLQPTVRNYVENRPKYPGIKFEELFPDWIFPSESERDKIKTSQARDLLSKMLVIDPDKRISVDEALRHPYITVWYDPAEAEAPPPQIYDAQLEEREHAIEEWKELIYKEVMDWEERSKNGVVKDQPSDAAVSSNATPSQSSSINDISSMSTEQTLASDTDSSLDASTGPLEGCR

The term pIC50 denotes −log10 of the IC50, conventionally taken in molar units. With `O=C(NC1CCN(C(=O)c2ccc(Nc3nccc(-c4ccc(Cl)cc4)n3)cc2)CC1)c1cccs1` [Compound 20-3], the pIC50 was no less than 6.00.

As for `CC(=O)N(C)C1CCN(C(=O)c2ccc(Nc3nccc(-c4ccc(Cl)cc4)n3)cc2)C1` (stereo not shown) [Compound 17-163], the pIC50 is no less than 5.00. As to `O=C(NCCCN1CCCC1=O)c1ccc(Nc2nccc(-c3ccc(Cl)cc3)n2)cc1` [Compound 17-54], the pIC50 is no less than 5.00.

On to `O=C(c1ccc(Nc2nccc(-c3ccc(Cl)cc3)n2)cc1)N1CCN(Cc2ccc3c(c2)OCO3)CC1` [Compound 17-128], for which the pIC50 is no less than 5.00. For `NC(=O)c1ccc(Nc2nccc(-c3ccc(N4CCCCC4)cc3)n2)cc1` [Compound 3-26], the pIC50 was no less than 5.00.

With `COc1ccccc1N1CCN(C(=O)c2ccc(Nc3nccc(-c4ccc(Cl)cc4)n3)cc2)CC1` [Compound 17-135], the pIC50 is no less than 5.00.

Turning to `O=C(c1ccc(Nc2nccc(-c3ccc(Cl)cc3)n2)cc1)N1CCOCC1` [Compound 17-133], the pIC50 was no less than 5.00.

Regarding `NC(=O)c1ccc(Nc2nccc(-c3ccc(SCCCN4CCOCC4)cc3)n2)cc1` [Compound 3-10], the pIC50 was no less than 5.00. As for `O=C(c1ccc(Nc2nccc(-c3ccc(Cl)cc3)n2)cc1)N1CCC(N2CCCCC2)CC1` [Compound 17-169], the pIC50 was no less than 6.00. Regarding `O=C(c1ccc(Nc2nccc(-c3ccc(Cl)cc3)n2)cc1)N1CCN(c2cccc(C(F)(F)F)c2)CC1` [Compound 17-143], the pIC50 was no less than 5.00. Consider `NC(=O)c1ccc(Nc2nccc(-c3ccc(-n4ccnc4)cc3)n2)cc1` [Compound 3-36], for which the pIC50 was no less than 5.00. As for `O=C(NC1CCN(C(=O)c2ccc(Nc3nccc(-c4ccc(Cl)cc4)n3)cc2)CC1)N1CCOCC1` [Compound 20-4], the figure is no less than 6.00; as for `CN(C)CCN(Cc1ccccc1)C(=O)c1ccc(Nc2nccc(-c3ccc(Cl)cc3)n2)cc1` [Compound 17-150], no less than 5.00; as for `CCOc1ccc(-c2ccnc(Nc3ccc(C(N)=O)cc3)n2)cn1` [Compound 3-23], no less than 6.00.

Regarding `CN(C)CCCSc1ccc(-c2ccnc(Nc3ccc(C(N)=O)cc3)n2)cc1` [Compound 3-11], the pIC50 was no less than 5.00. The figure for `CC(=O)NCCNC(=O)c1ccc(Nc2nccc(-c3ccc(Cl)cc3)n2)cc1` [Compound 17-22] is no less than 6.00; for `NC(=O)c1ccc(Nc2nccc(-c3cccs3)n2)cc1` [Compound 3-2] it is no less than 6.00. As for `NC(=O)c1ccc(Nc2nccc(-c3ccc([N+](=O)[O-])cc3)n2)cc1` [Compound 3-27], the figure is no less than 5.00; as for `COCCNC(=O)c1ccc(Nc2nccc(-c3ccc(Cl)cc3)n2)cc1` [Compound 17-24], no less than 6.00; as for `Cc1noc(C)c1C(=O)NC1CCN(C(=O)c2ccc(Nc3nccc(-c4ccc(Cl)cc4)n3)cc2)CC1` [Compound 20-2], no less than 5.00. Take `COc1ccc(-c2ccnc(Nc3ccc(C(N)=O)cc3)n2)cn1` [Compound 3-24]: the pIC50 is no less than 6.00. With `O=C(NCCCO)c1ccc(Nc2nccc(-c3ccc(Cl)cc3)n2)cc1` [Compound 17-25], the negative logarithm of the IC50 (pIC50) is no less than 5.00. Regarding `CC(=O)N1CCN(C(=O)c2ccc(Nc3nccc(-c4ccc(SCCCO)cc4)n3)cc2)CC1` [Compound 17-33], the pIC50 was no less than 6.00.

Take `CCN1CCN(C(=O)c2ccc(Nc3nccc(-c4ccc(Cl)cc4)n3)cc2)CC1` [Compound 17-35]: the pIC50 is no less than 5.00. For the molecule `CCN(C(C)=O)C1CCN(C(=O)c2ccc(Nc3nccc(-c4ccc(Cl)cc4)n3)cc2)C1` (stereo not shown) [Compound 17-162], the pIC50 was no less than 5.00. Consider `O=C(c1ccc(Nc2nccc(-c3ccc(Cl)cc3)n2)cc1)N1CCN(c2ccc(F)cc2)CC1` [Compound 17-149], for which the negative-log IC50 (pIC50) was no less than 5.00. Consider `CCCNC(=O)c1ccc(Nc2nccc(-c3ccc(Cl)cc3)n2)cc1` [Compound 17-132], for which the pIC50 is no less than 5.00. The figure for `CC(=O)N1CCN(C(=O)c2ccc(Nc3nccc(-c4ccc(Cl)cc4)n3)cc2)CC1` [Compound 17-129] is no less than 6.00. `O=C(c1ccc(Nc2nccc(-c3ccc(Cl)cc3)n2)cc1)N1CCNCC1` [Compound 18, 4-{[4-(4-Chlorophenyl)pyrimidin-2-yl]amino}benzoic acid piperazine amide hydrochloride]: the pIC50 was no less than 6.00.

In the case of `O=C(NCCCN1CCOCC1)c1ccc(Nc2nccc(-c3ccc(Cl)cc3)n2)cc1` [Compound 17-86], the pIC50 was no less than 5.00. With `NC(=O)c1ccc(Nc2nccc(-c3ccc(S(=O)(=O)c4ccccn4)cc3)n2)cc1` [Compound 3-9], the negative logarithm of the IC50 (pIC50) is no less than 6.00. As for `NC(=O)c1ccc(Nc2nccc(-c3ccc(S(=O)(=O)c4cccnc4)cc3)n2)cc1` [Compound 3-13], the negative logarithm of the IC50 (pIC50) is no less than 6.00.

Take `O=C(NCCCN1CCCCC1)c1ccc(Nc2nccc(-c3ccc(Cl)cc3)n2)cc1` [Compound 17-23]: the pIC50 is no less than 5.00. As for `CC(C)NC(=O)CN1CCN(C(=O)c2ccc(Nc3nccc(-c4ccc(SCCCO)cc4)n3)cc2)CC1` [Compound 17-32], the figure is no less than 6.00; as for `CN(C)C(=O)c1ccc(Nc2nccc(-c3ccc(Br)cc3)n2)cc1` [Compound 17-18], no less than 5.00; as for `CCC(=O)N1CCN(C(=O)c2ccc(Nc3nccc(-c4ccc(Cl)cc4)n3)cc2)CC1` [Compound 17-37], no less than 6.00. As for `O=C(c1ccc(Nc2nccc(-c3ccc(Cl)cc3)n2)cc1)N1CCC[C@@H]1CO` [Compound 17-27], the pIC50 is no less than 5.00. Turning to `CN(C)C(=O)c1ccc(Nc2nccc(-c3ccc(Cl)cc3)n2)cc1` [Compound 17-2], the pIC50 was no less than 5.00. Consider `CC(=O)NC1CCN(C(=O)c2ccc(Nc3nccc(-c4ccc(Cl)cc4)n3)cc2)CC1` [Compound 20-1], for which the pIC50 was no less than 6.00. The figure for `Cc1cnc(Nc2ccc(C(N)=O)cc2)nc1-c1ccc(Cl)cc1` [Compound 3-37] is no less than 5.00; for `NC(=O)c1ccc(Nc2nccc(-c3ccc(Br)cc3)n2)cc1` [Compound 3-22] it is no less than 5.00. As for `NC(=O)c1ccc(Nc2nccc(-c3ccc(SCCCO)cc3)n2)cc1` [Compound 3-14], the figure is no less than 6.00; as for `CN(C)C(=O)c1ccc(Nc2nccc(-c3ccc(SCCCO)cc3)n2)cc1` [Compound 17-31], no less than 6.00; as for `NC(=O)c1ccc(Nc2nccc(-c3ccc4ccccc4c3)n2)cc1` [Compound 3-34], no less than 5.00. `CN(C)c1ccc(-c2ccnc(Nc3ccc(C(N)=O)cc3)n2)cn1` [Compound 3-25]: the negative logarithm of the IC50 (pIC50) was no less than 6.00. As for `O=C(NCCCCO)c1ccc(Nc2nccc(-c3ccc(Cl)cc3)n2)cc1` [Compound 17-106], the figure is no less than 5.00; as for `O=C(c1ccc(Nc2nccc(-c3ccc(Cl)cc3)n2)cc1)N1CCN(c2ccccn2)CC1` [Compound 17-148], no less than 5.00; as for `NC(=O)c1ccc(Nc2nccc(-c3ccc(N4CCOCC4)cc3)n2)cc1` [Compound 3-30], no less than 5.00. The figure for `O=C(c1ccc(Nc2nccc(-c3ccc(Cl)cc3)n2)cc1)N1CCN(c2ccc([N+](=O)[O-])cc2)CC1` [Compound 17-136] is no less than 5.00. The figure for `NC(=O)c1ccc(Nc2nccc(-c3ccc(C(=O)O)cc3)n2)cc1` [Compound 3-40] is no less than 6.00. For `O=C(NCCN1CCOCC1)c1ccc(Nc2nccc(-c3ccc(Cl)cc3)n2)cc1` [Compound 17-142], the pIC50 is no less than 5.00.

As to `CN(C)CCNC1CCN(C(=O)c2ccc(Nc3nccc(-c4ccc(Cl)cc4)n3)cc2)CC1` [Compound 22-10], the negative logarithm of the IC50 (pIC50) is no less than 6.00.
